Measurements reported in US8314058B2, “Uptake of macromolecules” (Axcess Limited, priority 2003, dated 2012).

Test system: juvenile pigs
Assay: In vivo efficacy of tablets containing chenodeoxycholate/propyl gallate/calcitonin mixture in juvenile pigs (blood calcium)
Settings: 400 iu s.c., six hour period
Description: Blood calcium levels are measured at intervals over a six hour period and mean change in AUC of plasma calculated is calculated in h·mmol/l.

Substance: salmon calcitonin
- AUC (mean change in AUC of plasma calcium): -1.79 mmol·h/L
